# Biological target: Tyrosine-protein kinase BTK (Homo sapiens, UniProt Q06187)
# Assay: Inhibition Assay: The inhibitory properties of compounds relative to BTK is determined using a black 384-well-plate format in a buffer which contains 50 mM Hepes, 10 mM NaCl, 10 mM MgCl2, 0.2 mM EDTA, 0.01% Brij35®, 1 mM DTT, and 0.1 mg/mL BSA at pH 7.3. The test compound is prepared in DMSO using 2-fold serial dilutions for 11 data points, which are added to the buffer so that each dilution contains 3% DMSO. […] The reaction mixtures are incubated at room temperature for 60 minutes and then quenched by adding 25 μL of 50 mM EDTA. To quantify the fluorescent-labeled substrate and product following reaction, the test plate is loaded on a Caliper LC-3000, which measures percent of conversion by microfluidic-based separation.
# Chain of Tyrosine-protein kinase BTK (Q06187 whole entry): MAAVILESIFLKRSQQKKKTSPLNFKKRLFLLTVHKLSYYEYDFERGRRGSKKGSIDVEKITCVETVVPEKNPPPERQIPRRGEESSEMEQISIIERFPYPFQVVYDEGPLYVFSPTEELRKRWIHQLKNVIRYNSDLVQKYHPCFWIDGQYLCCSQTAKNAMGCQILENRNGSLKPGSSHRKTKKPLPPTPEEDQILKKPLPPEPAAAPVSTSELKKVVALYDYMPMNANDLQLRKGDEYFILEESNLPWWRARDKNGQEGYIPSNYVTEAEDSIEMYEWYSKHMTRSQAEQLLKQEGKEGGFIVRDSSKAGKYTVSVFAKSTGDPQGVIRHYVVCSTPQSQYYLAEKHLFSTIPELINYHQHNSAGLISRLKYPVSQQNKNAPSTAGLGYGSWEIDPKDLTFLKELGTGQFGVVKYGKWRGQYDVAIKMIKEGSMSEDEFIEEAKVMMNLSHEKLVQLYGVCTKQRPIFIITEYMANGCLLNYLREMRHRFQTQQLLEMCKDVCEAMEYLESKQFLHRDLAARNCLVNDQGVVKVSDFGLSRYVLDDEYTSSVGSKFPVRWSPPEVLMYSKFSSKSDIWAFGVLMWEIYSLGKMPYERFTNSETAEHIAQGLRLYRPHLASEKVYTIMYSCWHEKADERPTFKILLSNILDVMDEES
row,SMILES,IC50 [nM]
1,C=CC(=O)N1CC[C@H](Oc2nc(-c3n[nH]c(=O)[nH]3)cc3cccc(F)c23)C1,< 1.26
2,C=CC(=O)N1CC[C@H](Oc2nc(-c3n[nH]c(=O)[nH]3)cc3ccc(Cl)cc23)C1,< 1.26
